Test results reported in the NIST ThermoML archive (doi:10.1021/je100949x).
± gives the expanded uncertainty stated by the source.

Assay: xn = mol fraction of the nth substance listed
Conditions: Maximal bubble pressure

O [water] + CCCCn1cc[n+](C)c1.[Cl-]
surface tension liquid-gas (298.1 K, x2 = 0): 71.9 ± 0.7 mN/m | surface tension liquid-gas (298.9 K, x2 = 0): 71.7 ± 0.6 mN/m | surface tension liquid-gas (299.7 K, x2 = 0): 71.6 ± 0.4 mN/m

CCCCn1cc[n+](C)c1.F[B-](F)(F)F [1-butyl-3-methylimidazolium tetrafluoroborate] + O
surface tension liquid-gas (298 K, x1 = 0.053): 47.7 ± 0.5 mN/m | surface tension liquid-gas (298 K, x1 = 0.114): 48.1 ± 0.3 mN/m | surface tension liquid-gas (298.1 K, x1 = 0.014): 52.4 ± 6 mN/m | surface tension liquid-gas (298.1 K, x1 = 0.046): 47.8 ± 3.6 mN/m | surface tension liquid-gas (298.2 K, x1 = 0.007): 60.4 ± 4.6 mN/m | surface tension liquid-gas (298.2 K, x1 = 0.021): 49.2 ± 9.6 mN/m | surface tension liquid-gas (298.3 K, x1 = 0.029): 47.8 ± 0.6 mN/m | surface tension liquid-gas (298.3 K, x1 = 0.033): 47.9 ± 0.6 mN/m | surface tension liquid-gas (298.3 K, x1 = 0.068): 48.1 ± 1.1 mN/m | surface tension liquid-gas (298.3 K, x1 = 0.186): 48.1 ± 0.4 mN/m | surface tension liquid-gas (298.4 K, x1 = 0.004): 60.8 ± 3.2 mN/m | surface tension liquid-gas (298.4 K, x1 = 0.019): 48.9 ± 8.2 mN/m | surface tension liquid-gas (298.4 K, x1 = 0.028): 48 ± 1.1 mN/m | surface tension liquid-gas (298.4 K, x1 = 0.114): 48.1 ± 0.9 mN/m | surface tension liquid-gas (298.4 K, x1 = 0.17): 48.1 ± 0.9 mN/m | surface tension liquid-gas (298.4 K, x1 = 0.228): 47.9 ± 1 mN/m | surface tension liquid-gas (298.5 K, x1 = 0.006): 56.1 ± 7.4 mN/m | surface tension liquid-gas (298.5 K, x1 = 0.009): 53.2 ± 6.8 mN/m | surface tension liquid-gas (298.5 K, x1 = 0.013): 50.7 ± 4 mN/m | surface tension liquid-gas (298.5 K, x1 = 0.109): 48.4 ± 2.7 mN/m | surface tension liquid-gas (298.5 K, x1 = 0.163): 48.2 ± 0.5 mN/m | surface tension liquid-gas (298.6 K, x1 = 0.026): 48.5 ± 1.5 mN/m | surface tension liquid-gas (298.6 K, x1 = 0.061): 48.4 ± 0.4 mN/m | surface tension liquid-gas (298.6 K, x1 = 0.233): 47.9 ± 0.4 mN/m | surface tension liquid-gas (298.6 K, x1 = 0.292): 47.6 ± 0.9 mN/m | surface tension liquid-gas (298.6 K, x1 = 0.355): 47.5 ± 0.7 mN/m | surface tension liquid-gas (298.7 K, x1 = 0.014): 50.7 ± 1.3 mN/m | surface tension liquid-gas (298.7 K, x1 = 0.05): 48.3 ± 1.7 mN/m | surface tension liquid-gas (298.7 K, x1 = 0.42): 47.4 ± 0.7 mN/m | surface tension liquid-gas (298.8 K, x1 = 0.01): 53.2 ± 4.9 mN/m | surface tension liquid-gas (298.8 K, x1 = 0.319): 47.7 ± 0.4 mN/m | surface tension liquid-gas (298.9 K, x1 = 0.392): 47.5 ± 0.4 mN/m | surface tension liquid-gas (298.9 K, x1 = 0.435): 47.2 ± 0.7 mN/m | surface tension liquid-gas (299 K, x1 = 0.004): 60.3 ± 22 mN/m | surface tension liquid-gas (299.2 K, x1 = 0.51): 47.3 ± 0.8 mN/m

O [water] + CCCCn1cc[n+](C)c1.F[B-](F)(F)F
surface tension liquid-gas (298.1 K, x2 = 0): 72 ± 3.6 mN/m | surface tension liquid-gas (298.5 K, x2 = 0): 71.9 ± 7.7 mN/m | surface tension liquid-gas (298.9 K, x2 = 0): 71.8 ± 8.2 mN/m

CCCCn1cc[n+](C)c1.[Cl-] [1-butyl-3-methylimidazolium chloride] + O
surface tension liquid-gas (298.1 K, x1 = 0.011): 66.2 ± 1.1 mN/m | surface tension liquid-gas (298.1 K, x1 = 0.015): 65.5 ± 1.9 mN/m | surface tension liquid-gas (298.1 K, x1 = 0.018): 64.7 ± 3.4 mN/m | surface tension liquid-gas (298.2 K, x1 = 0.004): 69.9 ± 1 mN/m | surface tension liquid-gas (298.2 K, x1 = 0.025): 64.5 ± 4 mN/m | surface tension liquid-gas (298.2 K, x1 = 0.031): 63.7 ± 0.7 mN/m | surface tension liquid-gas (298.3 K, x1 = 0.007): 68.8 ± 1.5 mN/m | surface tension liquid-gas (298.3 K, x1 = 0.053): 61.7 ± 0.7 mN/m | surface tension liquid-gas (298.3 K, x1 = 0.073): 59.9 ± 1 mN/m | surface tension liquid-gas (298.7 K, x1 = 0.142): 56.7 ± 0.5 mN/m | surface tension liquid-gas (298.9 K, x1 = 0.112): 57.6 ± 1.2 mN/m | surface tension liquid-gas (298.9 K, x1 = 0.226): 55 ± 0.5 mN/m | surface tension liquid-gas (299 K, x1 = 0.188): 55.4 ± 0.5 mN/m | surface tension liquid-gas (299.1 K, x1 = 0.004): 68.9 ± 2.3 mN/m | surface tension liquid-gas (299.2 K, x1 = 0.009): 66.5 ± 0.6 mN/m | surface tension liquid-gas (299.2 K, x1 = 0.016): 65 ± 0.7 mN/m | surface tension liquid-gas (299.2 K, x1 = 0.023): 63.8 ± 0.9 mN/m | surface tension liquid-gas (299.2 K, x1 = 0.303): 55 ± 0.5 mN/m | surface tension liquid-gas (299.3 K, x1 = 0.03): 62.8 ± 1.5 mN/m | surface tension liquid-gas (299.5 K, x1 = 0.033): 63.3 ± 1.2 mN/m | surface tension liquid-gas (299.5 K, x1 = 0.037): 63 ± 1 mN/m | surface tension liquid-gas (299.5 K, x1 = 0.374): 54.9 ± 0.5 mN/m | surface tension liquid-gas (299.6 K, x1 = 0.028): 64.1 ± 1.4 mN/m | surface tension liquid-gas (299.7 K, x1 = 0.002): 70.5 ± 0.4 mN/m | surface tension liquid-gas (299.7 K, x1 = 0.011): 67.1 ± 0.9 mN/m | surface tension liquid-gas (299.7 K, x1 = 0.017): 65.6 ± 0.6 mN/m | surface tension liquid-gas (299.9 K, x1 = 0.067): 59.3 ± 0.5 mN/m | surface tension liquid-gas (300 K, x1 = 0.048): 61 ± 4.1 mN/m | surface tension liquid-gas (300.1 K, x1 = 0.422): 54.3 ± 0.6 mN/m | surface tension liquid-gas (300.3 K, x1 = 0.077): 59.6 ± 1.2 mN/m | surface tension liquid-gas (300.3 K, x1 = 0.11): 57 ± 0.5 mN/m | surface tension liquid-gas (300.4 K, x1 = 0.089): 57.9 ± 0.6 mN/m | surface tension liquid-gas (300.4 K, x1 = 0.292): 53.7 ± 0.9 mN/m | surface tension liquid-gas (300.5 K, x1 = 0.139): 55.8 ± 0.7 mN/m | surface tension liquid-gas (300.5 K, x1 = 0.198): 54.9 ± 0.4 mN/m | surface tension liquid-gas (300.6 K, x1 = 0.134): 55.9 ± 0.4 mN/m | surface tension liquid-gas (300.6 K, x1 = 0.48): 54.1 ± 0.5 mN/m | surface tension liquid-gas (300.7 K, x1 = 0.163): 55.4 ± 0.4 mN/m | surface tension liquid-gas (300.9 K, x1 = 0.36): 53.8 ± 1.3 mN/m | surface tension liquid-gas (301.1 K, x1 = 0.225): 54.4 ± 0.5 mN/m | surface tension liquid-gas (301.2 K, x1 = 0.268): 54.8 ± 0.5 mN/m | surface tension liquid-gas (301.6 K, x1 = 0.329): 54.6 ± 0.6 mN/m | surface tension liquid-gas (302.1 K, x1 = 0.398): 54.4 ± 0.5 mN/m
